Data as given in US5635359A, “Method for measuring the activity of angiotensin converting enzyme in biological samples” (priority 1991, dated 1997).

Legend:
angiotensin I = assay: Plasma angiotensin I concentration after oral enalapril; type: in vivo, human; conditions: healthy humans, single oral dose 20 mg enalapril, mean ± SEM
Method: (§1) Ten normal volunteers aged 20 to 28 years (body weight 63 to 85 kg) participated in the study. On the study day, they came to the hospital at 7 a.m. and were installed in a supine position. At 8 a.m., the subjects ingested 20 mg enalapril, an inhibitor of angiotensin converting enzyme. Venous blood samples were collected before (time 0) and at 0.5, 1, 2, 4, 8 and 24 hours after enalapril intake. The subjects remained in supine position for one hour prior to blood sampling and no food intake was permitted within three hours prior to sampling.
(§2) For the measurement of Ang II (Nussberger J., Brunner D. B., Waeber B., Brunner H. R., Hypertension 1985; 7 (Suppl. I): 11-17) and immunoreactive Ang I (Nussberger J., Brunner D. B., Waeber B., Brunner H. R., Life Sci. 1988; 42:1683-1688), another 10 ml blood were collected on an inhibitor cocktail containing EDTA and renin inhibitor to prevent degradation and generation of these peptides in vitro. Samples were centrifuged at 4° C. and plasma aliquots of 2.2 ml snap frozen and stored as described above.

[1] = system: angiotensin converting enzyme (ACE); assay: Ratio of plasma Ang II/Ang I as in vivo ACE-activity after oral enalapril; design: species or system human; conditions: for In vivo ACE-activity (ratio of plasma Ang II to Ang I) as percent of baseline / Ratio Ang II/Ang I: mean ± SEM; for Ratio Ang II/Ang I: plasma, healthy humans, single oral dose 20 mg enalapril
Method: as §1, §2
(§3) Plasma ACE-activity was also measured by an established method using as substrate synthetic carbobenzoxy-Phe-His-Leu at 1.8 mM concentration (Piquilloud Y., Reinharz A., Roth M.. Biochem. Biophys. Acta 1970; 206: 136-142). The ratio of the plasma concentrations Ang II/Ang I was used for estimation of ACE-activity "in vivo" (Nussberger J., Juillerat L., Perret F., Waeber B., Bellet M., Brunner H. R., Menard J., Am Heart J. 1989; 117: 717-722).

[2] = system: angiotensin converting enzyme (ACE); assay: Plasma ACE-activity, trapping-assay (Ang I substrate, monoclonal antibody TRAP, RIA) after oral enalapril; type: in vivo, human; conditions: for ACE-activity measured in vitro with the trapping-assay as percent of baseline / ACE-Activity trapping-assay: mean ± SEM; for ACE-Activity trapping-assay: healthy humans, single oral dose 20 mg enalapril
Method: as §1
(§4) For the measurement of ACE-activity, blood samples (5 ml) were collected from the antecubital vein into prechilled glass tubes containing heparin (56 USP) and 25 μl renin inhibitor CGP 29287 (Ciba-Geigy, Basel, Switzerland) at 1 mM in water. Blood was centrifuged at 4° C. and 2000 g for 10 minutes and plasma aliquots of 0.5 ml were snap frozen in liquid nitrogen and stored at -70° C. until analyzed.
All procedures were done in an ice-water bath unless stated otherwise: Plasma was thawed and centrifuged at 4° C. and 40 μl supernatant was pipetted into a small polypropylene tube. Ten microliter monoclonal antibody TRAP (which was secreted from the Hybridoma cell line TRAP DSM ACC2003) was added (mouse ascites diluted 1:8400 in 3M tris buffer at pH 7.3). One picomole angiotensin I was added in 10 microliter albumin buffer containing--for blank determination only--EDTA at 0.2M concentration. After mixing and cold centrifugation in order to concentrate the mixture at the bottom of the tube (1 minute at 2000 g) samples were incubated in a water bath at 37° C. for 20 minutes. Incubation was stopped by returning the samples to the ice-water bath. Forty microliters of albumin buffer without/with 0.2M EDTA was added to blanks/samples in order to equalize conditions. Each tube (total 100 microliters) finally received 1 ml albumin buffer containing 1 fmol ^125 I-Ang II (2000 counts per minute) and EDTA at 0.02M concentration. After a 24 hour incubation at 4° C., antibody-bound and free Ang II were separated by adding 0.3 ml water containing 2% dextran-coated charcoal, mixing for 10 minutes, centrifugation at 4° C. (for 20 minutes at 6000 g) and decanting of the supernatant. Supernatant and pellet were counted in a ten-well scintillation counter (GammamasterR, Wallac, Turku, Finland) and generated Ang II was read from a simultaneously established standard curve.
For the standard curve, increasing amounts of unlabeled Ang II ranging from 16 to 4000 fmol in 40 μl pool plasma which contained unmeasurably low endogenous Ang I and Ang II and renin inhibitor CGP 29287 at 0.01 mM concentration; antibody in 3M tris buffer (10 μl) and 1000 fmol Ang I in EDTA-albumin buffer (10 μl) were added in order to obtain identical conditions as for the unknown samples.

[3] = system: angiotensin converting enzyme (ACE); assay: Plasma ACE-activity, conventional assay (substrate carbobenzoxy-Phe-His-Leu) after oral enalapril; type: in vivo, human; conditions: for Plasma ACE-activity by the conventional method, % of pretreatment values / ACE-Activity Conventional assay: mean ± SEM; for ACE-Activity Conventional assay: healthy humans, single oral dose 20 mg enalapril
Method: as §1, §4, §3

angiotensin II = assay: Plasma angiotensin II concentration after oral enalapril; type: in vivo, human; conditions: healthy humans, single oral dose 20 mg enalapril, mean ± SEM
Method: as §1, §2

[4] = 4 hours post enalapril intake (20 mg oral)
[5] = 8 hours post enalapril intake (20 mg oral)
[6] = 24 hours post enalapril intake (20 mg oral)

## CCOC(=O)[C@H](CCc1ccccc1)N[C@@H](C)C(=O)N1CCC[C@H]1C(=O)O [enalapril]
Angiotensin I; 0.5 h after intake
  Angiotensin I: 7.3 ± 1.5 fmol/mL
Angiotensin I; 1 h after intake
  Angiotensin I: 13.5 ± 3.0 fmol/mL
Angiotensin I; 2 h after intake
  Angiotensin I: 45.7 ± 12.9 fmol/mL
Angiotensin I; 4 h after intake
  Angiotensin I: 66.8 ± 17.6 fmol/mL
Angiotensin I; 8 h after intake
  Angiotensin I: 76.6 ± 15.9 fmol/mL
Angiotensin I; 24 h after intake
  Angiotensin I: 32.1 ± 6.4 fmol/mL
[1]; [4]
  In vivo ACE-activity (ratio of plasma Ang II to Ang I) as percent of baseline: 2.1±0.3%
[1]; [5]
  In vivo ACE-activity (ratio of plasma Ang II to Ang I) as percent of baseline: 2.0±0.4%
[1]; [6]
  In vivo ACE-activity (ratio of plasma Ang II to Ang I) as percent of baseline: 21.9±5.0%
[1]; at 24 hours
  In vivo ACE-activity (ratio of plasma Ang II to Ang I) returned to: 22%
[1]; at peak inhibition
  Decrease of in vivo ACE-activity (ratio of plasma Ang II to Ang I): 98%
[1]; 0.5 h after intake
  Ratio Ang II/Ang I: .748 ± .101
[1]; 1 h after intake
  Ratio Ang II/Ang I: .315 ± .094
[1]; 2 h after intake
  Ratio Ang II/Ang I: .029 ± .006
[1]; 4 h after intake
  Ratio Ang II/Ang I: .015 ± .003
[1]; 8 h after intake
  Ratio Ang II/Ang I: .016 ± .003
[1]; 24 h after intake
  Ratio Ang II/Ang I: .147 ± .027
[2]; [4]
  ACE-activity measured in vitro with the trapping-assay as percent of baseline: 3.6±2.4%
[2]; [5]
  ACE-activity measured in vitro with the trapping-assay as percent of baseline: 1.3±1.3%
[2]; [6]
  ACE-activity measured in vitro with the trapping-assay as percent of baseline: 27.4±3.4%
[2]; at 24 hours
  Plasma ACE-activity measured in vitro, trapping method, returned to: 27%
[2]; at peak inhibition
  Decrease of plasma ACE-activity measured in vitro, trapping method: 99%
[2]; 0.5 h after intake
  ACE-Activity trapping-assay: 295 ± 27 fmol/mL/min
[2]; 1 h after intake
  ACE-Activity trapping-assay: 107 ± 17 fmol/mL/min
[2]; 2 h after intake
  ACE-Activity trapping-assay: 28 ± 8 fmol/mL/min
[2]; 4 h after intake
  ACE-Activity trapping-assay: 15 ± 10 fmol/mL/min
[2]; 8 h after intake
  ACE-Activity trapping-assay: 5 ± 5 fmol/mL/min
[2]; 24 h after intake
  ACE-Activity trapping-assay: 87 ± 10 fmol/mL/min
[3]; 4 hours after enalapril administration (20 mg oral)
  Plasma ACE-activity by the conventional method, % of pretreatment values: 16.5±1.7%
[3]; 8 hours after enalapril administration (20 mg oral)
  Plasma ACE-activity by the conventional method, % of pretreatment values: 20.8±1.7%
[3]; 24 hours after enalapril administration (20 mg oral)
  Plasma ACE-activity by the conventional method, % of pretreatment values: 62.6±1.6%
[3]; at 24 hours
  ACE-activity, conventional method, return towards baseline: 66%
[3]; at peak inhibition
  Peak ACE-inhibition, decrease from baseline, conventional method: 83%
[3]; 0.5 h after intake
  ACE-Activity Conventional assay: 18.1 ± 1.7 nmol/mL/min
[3]; 1 h after intake
  ACE-Activity Conventional assay: 12.1 ± 1.2 nmol/mL/min
[3]; 2 h after intake
  ACE-Activity Conventional assay: 4.5 ± 0.8 nmol/mL/min
[3]; 4 h after intake
  ACE-Activity Conventional assay: 3.0 ± 0.4 nmol/mL/min
[3]; 8 h after intake
  ACE-Activity Conventional assay: 3.7 ± 0.4 nmol/mL/min
[3]; 24 h after intake
  ACE-Activity Conventional assay: 11.2 ± 1.0 nmol/mL/min
Angiotensin II; 0.5 h after intake
  Angiotensin II: 4.6 ± 0.5 fmol/mL
Angiotensin II; 1 h after intake
  Angiotensin II: 2.9 ± 0.5 fmol/mL
Angiotensin II; 2 h after intake
  Angiotensin II: 1.1 ± 0.3 fmol/mL
Angiotensin II; 4 h after intake
  Angiotensin II: 1.0 ± 0.2 fmol/mL
Angiotensin II; 8 h after intake
  Angiotensin II: 1.6 ± 0.4 fmol/mL
Angiotensin II; 24 h after intake
  Angiotensin II: 3.8 ± 0.5 fmol/mL
